The subject of data set [1] is Cyclin B1. Briefly: Western blot, cyclin B1 in HCT-116 cells. The data set is classed as cell-based, human. The settings on record: HCT-116, 5, 10 and 15 μM, 24 h, concentration-dependent. The protocol: (§1) HCT-116 cells were cultured with different concentrations of compound 5d for 24 h. Then, the floating cells was collected and washed two times with ice cold PBS. The pellet was resuspended in lysis buffer. After the cells were lysed on ice for 20 min, lysates were centrifuged at 12,000 rpm at 4 °C for 15 min. The protein concentration in the supernatant was determined using BCA protein assay reagents. Equal amounts of protein (50 μg) were resolved using sodium dodecyl sulphate-polyacrylamide gel electrophoresis (SDS-PAGE) (8−12% acrylamide gels) and transferred to a PVDF Hybond-P membrane. Membranes were blocked with PBS containing 5% non-fat milk for 1 h at room temperature. Membranes were then incubated with primary antibodies against Cyclin A (ENT1167, Elabscience, Wuhan, China), Cyclin E1 (ENT1176, Elabscience, Wuhan, China), Cyclin B1 (ENT1169, Elabscience, Wuhan, China) and β-actin (ENM0028, Elabscience, Wuhan, China), with gentle rotation overnight at 4 °C. Membranes were next incubated with fluorescent secondary antibodies for 2 h. Proteins were detected by electrochemiluminescence (Bio-Rad, Hercules, CA, USA).
For orientation: A western blot detects proteins with antibodies after separation by electrophoresis.

A short description of data set [2]: MTT antiproliferative assay, BEL-7402. The settings on record: human, BEL-7402 liver cancer cells versus normal L02 cells; BEL-7402 vs L02. The data set is classed as cell-based, human. The essentials: (§2)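 Cells seeded at 9 × 10^3 per well, allowed 24 h to adhere, then exposed 48 h to compound at 1, 10, 50 and 100 µM. MTT added to 2 mg/mL for 4 h, formazan dissolved in DMSO, OD read at 492 nm; inhibition calculated relative to untreated and blank wells.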

Data set [3] concerns BEL-7402 cells. Description: MTT antiproliferative assay, BEL-7402. Type of data set: cell-based, human. The essentials:
as §2

Data set [4] can be described thus: MTT antiproliferative assay, HepG2. Type of data set: cell-based, human. Particulars: human, HepG2 liver cancer cells versus normal L02 cells; HepG2 vs L02. An outline of the steps: as §2
Data set [5] has as its system HepG2 cells. Briefly: MTT antiproliferative assay, HepG2. Type of data set: cell-based, human. An outline of the steps: as §2
For orientation: Tetrazolium assays rely on reduction of a dye to a coloured formazan, in cell work by metabolically active cells.

In data set [6] the test system is HCT-116 cells. Briefly: Apoptosis by annexin V-FITC/propidium iodide flow cytometry. Particulars: 24 h; for percentage of total apoptotic cells (UR + LR): control 5.98%. The data set is classed as cell-based, human. The protocol:
Apoptosis was detected using an Apoptosis Detection Kit (Invitrogen, Eugene, OR, USA). In brief, cells were cultured in 6-well plates (5.0 × 10^5 cells per well) and incubated at 37 °C for 24 h. Cells with exponential growth were then incubated with compound 5d at 5 and 15 µM. Following 24 h of incubation, the cells were collected, washed twice with PBS and once with 1 × binding buffer and then stained with […] of annexin V-FITC and […] of PI 5mg/mL in 1 × binding buffer for 30 min at room temperature in the dark. Apoptotic cells were enumerated using a FACSCalibur flow cytometer with Cell Quest software (Becton–Dickinson, Franklin Lakes, NJ, USA).
In general terms: A flow cytometer gives signals particle by particle.

Data set [7] in a line: MTT antiproliferative assay, HCT-116. The settings on record: human, HCT-116 colorectal cancer cells versus normal L02 cells; HCT-116 vs L02. Type of data set: cell-based, human. The essentials: as §2
In data set [8] the test system is HCT-116 cells. Briefly: MTT antiproliferative assay, HCT-116. The data set is classed as cell-based, human. The essentials:
as §2

In data set [9] the test system is Cyclin A. Briefly: Western blot, cyclin A in HCT-116 cells. Type of data set: cell-based, human. The settings on record: HCT-116, 5, 10 and 15 μM, 24 h, concentration-dependent. As for the experimental part:
as §1

Data set [10] deals with HCT-116 cells. Briefly: Colony formation assay. The data set is classed as cell-based. Particulars: Homo sapiens, HCT-116, 168 h, 7 days, read-out: inhibition rate of colony formation. The protocol: Exponentially growing determined HCT-116 cells (6 × 10^2 per well) were plated in 6-well plates with the Roswell Park Memorial Institute (RPMI) 1640 culture medium (Gibco, USA) containing with 10% fetal bovine serum (FBS) (Gibco, Waltham, MA, USA). After an overnight incubation, the culture medium was removed and replaced fresh medium. Then, the cells were treated with various concentrations of compound 5d (5, 10 and 15 μM) dissolved in DMSO. Some cells were treated with DMSO only as a negative control. The cells were then incubated for another 7 days. Finally, the cells were fixed with 4% paraformaldehyde for 30 min and stained with 0.1% crystal violet for 15 min at room temperature, after which, the staining was washed with PBS until the colonies were totally cleared.

The test system of data set [11] is Cyclin E1. Briefly: Western blot, cyclin E1 in HCT-116 cells. Particulars: HCT-116, 5, 10 and 15 μM, 24 h, concentration-dependent. The data set is classed as cell-based, human. As for the experimental part: as §1
Where [12] appears, read: IC50 on normal cells (L02)/IC50 on cancer cells.

What is called inhibition is the percentage by which the read-out fell short of the control. For orientation: IC50 means the point on the concentration scale where inhibition reaches its midpoint. Low values mean inhibition by little substance, high ones a need for much substance. For `Cc1ccc(-n2cc(CNC(=O)COC(=O)[C@]3(C)CCC[C@@]4(C)[C@@H]5CC[C@@]6(C)C[C@]5(CC[C@@H]43)CC6=O)nn2)cc1` [Compound 5d, 2-oxo-2-(((1-(p-tolyl)-1H-1,2,3-triazol-4-yl)methyl)amino)ethyl(4R,4aS,6aR,9S,11aR,11bS)-4,9,11b-trimethyl-8-oxotetradecahydro-6a,9-methanocyclohepta[a]naphthalene-4-carboxylate], the “cyclin B1 protein level” value in data set [1] is listed as “increasing”. The selectivity ratio at 48 h in [2] was 11.2; in data set [4], 22; in [7], 38.2. In addition, the inhibition at 100 µM in data set [3] (Homo sapiens, Bel-7402, 100 μM, 48 h, MTT, mean ± SD, n=3, read-out: % Growth Inhibition at 100 μM BEL-7402) was determined as 86.5 ± 0.87%; in data set [5] (Homo sapiens, HepG2, 100 μM, 48 h, MTT, mean ± SD, n=3, read-out: % Growth Inhibition at 100 μM HepG2), 82.8 ± 0.86%; in data set [8] (Homo sapiens, HCT-116, 100 μM, 48 h, MTT, mean ± SD, n=3, read-out: % Growth Inhibition at 100 μM HCT-116), 84.6 ± 0.96%. In addition, the IC50 is 15.9 ± 0.41 µM in data set [3] (Homo sapiens, Bel-7402, 48 h, MTT, mean ± SD, n=3); 8.92 ± 0.44 µM in data set [5] (Homo sapiens, HepG2, 48 h, MTT, mean ± SD, n=3); 5.38 ± 0.26 µM in data set [8] (Homo sapiens, HCT-116, 48 h, MTT, mean ± SD, n=3). The “Selectivity Index BEL-7402” value in [3] (setting [12]) was 10.12. Further, the entries for the “fold more active than 5-FU” value in data set [3] (against BEL-7402 cells), in data set [5] (against HepG2 cells) and in data set [8] (against HCT-116 cells) were 1.3 fold, 2.6 fold and 4.6 fold, respectively. The “Selectivity Index HepG2” value in [5] (setting [12]) was determined as 18.05. Further, the “percentage of total apoptotic cells (UR + LR)” value came to 7.67% in data set [6] (5 μM) and 24.94% in data set [6] (15 μM). Besides, the “dead cells (UL)” value in data set [6] (15 μM, control 8.84%) is reported as 49.22%. The “Selectivity Index HCT-116” value in data set [8] (setting [12]) was 29.93. Further, the “cyclin A protein level” value in data set [9] is recorded as “decreased”. The inhibition at 15 µM in [10] came out at 84%. Besides, in data set [11], the “cyclin E1 protein level” value is recorded as “decreased”.

These data come from publication PMC6337650 (Molecules, 2018).
